The subject of series [1] is in vitro grown Mycobacteria (M. tuberculosis). Kind of series: QUM: Quantification of in vitro grown Mycobacteria (in vitro growth fluorescence assay). In kind it is cell-based. The following applies: Mycobacterium tuberculosis; MIC, 80% bacterial growth inhibition; in vitro growth; read-out: QUM. In a few lines:
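Mycobacterium tuberculosis grown in vitro was quantified by fluorescence across compound dose responses. MIC is defined as the minimum concentration producing 80% growth inhibition.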

Series [2] relates to M. tuberculosis inside the host macrophage. Kind of series: QIM: Quantification of Intracellular Mycobacteria (intracellular growth assay, phenotypic cell-based). The following applies: Mycobacterium tuberculosis; MIC, 80% bacterial growth inhibition; intracellular growth; read-out: QIM. An outline of the steps: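 Dose-response testing of intracellular mycobacterial replication in infected macrophages, a cell-based screening format; MIC is defined as the lowest concentration achieving 80% inhibition of bacterial growth.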

For `CCc1nc2cc(Cl)ccn2c1C(=O)NCc1ccc(N2CCC(c3ccc(F)cc3)CC2)cc1` [Compound 287, 7-Chloro-2-ethyl-N-(4-(4-(4-fluorophenyl)piperidin-1-yl)benzyl)imidazo[1,2-a]pyridine-3-carboxamide], the melting point (in general, the temperature of the solid-liquid transition) came to 182.7 °C. Besides, the MIC in series [1] was under 1 µM. Also, in series [2], the MIC is under 1 µM.

In turn, `CCc1nc2ccccn2c1C(=O)NCc1ccc(N2CCC(COc3ccc(F)cc3)CC2)cc1` [Compound 295, 2-Ethyl-N-(4-(4-((4-fluorophenoxy)methyl)piperidin-1-yl)benzyl)imidazo[1,2-a]pyridine-3-carboxamide] had a melting point of 144.2 °C. In series [1], the MIC was under 1 µM. Further, the MIC in series [2] is under 1 µM.

Regarding `CCc1nc2ccc(Cl)cn2c1C(=O)NCc1ccc(N2CCC(COc3ccc(F)cc3)CC2)cc1` [Compound 296, 6-Chloro-2-ethyl-N-(4-(4-((4-fluorophenoxy)methyl)piperidin-1-yl)benzyl)imidazo[1,2-a]pyridine-3-carboxamide], the melting point came out at 171 °C. Further, in series [1], the MIC was under 1 µM. Further, the MIC in series [2] was under 1 µM.

For the compound `CCc1nc2cc(Cl)ccn2c1C(=O)NCc1ccc(N2CCC(COc3ccc(F)cc3)CC2)cc1` [Compound 297, 7-Chloro-2-ethyl-N-(4-(4-((4-fluorophenoxy)methyl)piperidin-1-yl)benzyl)imidazo[1,2-a]pyridine-3-carboxamide], the melting point was 186.5 °C. The MIC in series [1] was under 1 µM. The MIC in series [2] is under 1 µM.

`CCc1nc2ccccn2c1C(=O)NCc1ccc(N2CCN(c3ccc(F)cc3)CC2)cc1` [Compound 303, 2-Ethyl-N-(4-(4-(4-fluorophenyl)piperazin-1-yl)benzyl)imidazo[1,2-a]pyridine-3-carboxamide] displayed a melting point of 189.2 °C. Besides, in series [1], the MIC was under 1 µM. Also, in series [2], the MIC was under 1 µM.

`CCc1nc2ccc(F)cn2c1C(=O)NCc1ccc(N2CCN(c3ccc(F)cc3)CC2)cc1` [Compound 306, 2-Ethyl-6-fluoro-N-(4-(4-(4-fluorophenyl)piperazin-1-yl)benzyl)imidazo[1,2-a]pyridine-3-carboxamide] displayed a melting point of 200.9 °C. Moreover, the MIC in series [1] is under 1 µM. The MIC in series [2] was under 1 µM.

`CCc1nc2ccc(Br)cn2c1C(=O)NCc1ccc(N2CCN(c3ccc(F)cc3)CC2)cc1` [Compound 307, 6-Bromo-2-ethyl-N-(4-(4-(4-fluorophenyl)piperazin-1-yl)benzyl)imidazo[1,2-a]pyridine-3-carboxamide] registered a melting point of 218.1 °C. In addition, the MIC in series [1] was under 1 µM. For the same compound, the MIC in series [2] is under 1 µM.

In the case of `CCc1nc2cc(C)ccn2c1C(=O)NCc1ccc(N2CCN(c3ccc(F)cc3)CC2)cc1` [Compound 309, 2-Ethyl-N-(4-(4-(4-fluorophenyl)piperazin-1-yl)benzyl)-7-methylimidazo[1,2-a]pyridine-3-carboxamide], the melting point is 203.7 °C. In addition, in series [1], the MIC is under 1 µM. Besides, the MIC in series [2] is under 1 µM.

As to `CCc1nc2c(F)cccn2c1C(=O)NCc1ccc(N2CCN(c3ccc(F)cc3)CC2)cc1` [Compound 310, 2-Ethyl-8-fluoro-N-(4-(4-(4-fluorophenyl)piperazin-1-yl)benzyl)imidazo[1,2-a]pyridine-3-carboxamide], the melting point was determined as 204.1 °C. For the same compound, the MIC in series [1] was under 1 µM. Besides, in series [2], the MIC was under 1 µM.

As for `CCc1nc2cc(Br)ccn2c1C(=O)NCc1ccc(N2CCN(c3ccc(F)cc3)CC2)cc1` [Compound 311, 7-Bromo-2-ethyl-N-(4-(4-(4-fluorophenyl)piperazin-1-yl)benzyl)imidazo[1,2-a]pyridine-3-carboxamide], the melting point is 214.6 °C. The MIC in series [1] is under 1 µM. In addition, the MIC in series [2] was under 1 µM.

`CCc1nc2ccc(Br)cn2c1C(=O)NCc1ccc(N2CCOCC2)cc1` [Compound 315, 6-Bromo-2-ethyl-N-(4-morpholinobenzyl)imidazo[1,2-a]pyridine-3-carboxamide] had a melting point of 228.2 °C. Also, in series [1], the MIC is under 1 µM. The MIC in series [2] is under 1 µM.

Compound `CCc1nc2c(F)cccn2c1C(=O)NCc1ccc(N2CCOCC2)cc1` [Compound 317, 2-Ethyl-8-fluoro-N-(4-morpholinobenzyl)imidazo[1,2-a]pyridine-3-carboxamide] displayed a melting point of 197.3 °C. Besides, the MIC in series [1] is under 1 µM. Also, in series [2], the MIC is under 1 µM.

Compound `CCc1nc2cc(Br)ccn2c1C(=O)NCc1ccc(N2CCOCC2)cc1` [Compound 324, 7-Bromo-2-ethyl-N-(4-morpholinobenzyl)imidazo[1,2-a]pyridine-3-carboxamide] had a melting point of 202.6 °C. Further, the MIC in series [1] is under 1 µM. In series [2], the MIC is under 1 µM.

The compound `CCc1nc2cc(-c3ccncc3)ccn2c1C(=O)NCc1ccc(N2CCOCC2)cc1` [Compound 325, 2-Ethyl-N-(4-morpholinobenzyl)-7-(pyridin-4-yl)imidazo[1,2-a]pyridine-3-carboxamide] yielded a melting point of 210.1 °C. Besides, the MIC in series [1] is over 20 µM. For the same compound, the MIC in series [2] is over 20 µM.

Compound `CCc1nc2cc(-c3cccnc3)ccn2c1C(=O)NCc1ccc(N2CCOCC2)cc1` [Compound 326, 2-Ethyl-N-(4-morpholinobenzyl)-7-(pyridin-3-yl)imidazo[1,2-a]pyridine-3-carboxamide] registered a melting point of 208.5 °C. Besides, in series [1], the MIC was over 20 µM. The MIC in series [2] was over 20 µM.

For the compound `CCc1nc2cc(N3CCN(C)CC3)ccn2c1C(=O)NCc1ccc(N2CCOCC2)cc1` [Compound 328, 2-Ethyl-7-(4-methylpiperazin-1-yl)-N-(4-morpholinobenzyl)imidazo[1,2-a]pyridine-3-carboxamide], the melting point was 204.8 °C. Moreover, the MIC in series [1] was over 20 µM. Also, in series [2], the MIC was over 20 µM.

Compound `CCc1nc2cc(N3CCN(c4ccccc4)CC3)ccn2c1C(=O)NCc1ccc(C(F)(F)F)cc1` [Compound 330, 2-Ethyl-7-(4-phenylpiperazin-1-yl)-N-(4-(trifluoromethyl)benzyl)imidazo[1,2-a]pyridine-3-carboxamide] had a melting point of 235.2 °C. Also, the MIC in series [1] is over 20 µM. The MIC in series [2] is under 1 µM.

On to `CCc1nc2cc(N3CCN(Cc4ccc(F)cc4)CC3)ccn2c1C(=O)NCc1ccc(N2CCOCC2)cc1` [Compound 331, 2-Ethyl-7-(4-(4-fluorobenzyl)piperazin-1-yl)-N-(4-morpholinobenzyl)imidazo[1,2-a]pyridine-3-carboxamide], for which the melting point was determined as 212.5 °C. In addition, the MIC in series [1] is over 20 µM. Besides, the MIC in series [2] was over 20 µM.
